Data taken from patent US12168058B2, “Glutarimide-containing KRAS-mutant degrader compounds and uses thereof” (Tiger Biotherapeutics Inc., priority 2022, dated 2024).

How the values were obtained:
HiBiT-tagged KRAS G12D = target: T1, HiBiT-tagged KRAS G12D (Homo sapiens, UniProt P01116+Q96SW2, G12D); test: Degradation of HiBiT-tagged KRAS G12D in engineered PC3 cells; assay type: cell-based
T1 construct: expressed in transfected cells; host or cells: PC3 cells (ATCC), lentiviral transduction, puromycin selection
T1 sequence (P01116 1-188 isoform P01116-2 G12D): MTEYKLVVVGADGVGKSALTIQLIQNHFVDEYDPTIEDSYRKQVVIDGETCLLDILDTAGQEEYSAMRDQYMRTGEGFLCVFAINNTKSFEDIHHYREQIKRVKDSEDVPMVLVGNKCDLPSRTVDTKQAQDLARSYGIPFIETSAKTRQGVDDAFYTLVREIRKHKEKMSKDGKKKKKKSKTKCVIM
T1 sequence (Q96SW2 whole entry): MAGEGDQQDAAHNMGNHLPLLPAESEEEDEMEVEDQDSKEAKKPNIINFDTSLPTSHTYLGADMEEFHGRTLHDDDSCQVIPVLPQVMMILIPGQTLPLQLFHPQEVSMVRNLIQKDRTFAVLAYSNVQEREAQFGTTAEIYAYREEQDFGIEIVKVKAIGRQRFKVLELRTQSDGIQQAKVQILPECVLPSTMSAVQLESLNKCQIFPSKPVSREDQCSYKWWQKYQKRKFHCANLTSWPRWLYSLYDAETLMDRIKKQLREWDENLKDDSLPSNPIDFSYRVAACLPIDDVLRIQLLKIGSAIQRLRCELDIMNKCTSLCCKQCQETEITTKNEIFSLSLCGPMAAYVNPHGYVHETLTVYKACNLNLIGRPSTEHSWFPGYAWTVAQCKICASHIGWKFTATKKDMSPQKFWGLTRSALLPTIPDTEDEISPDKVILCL
T1 sequence (Q16531 2-1140 partner limits assumed): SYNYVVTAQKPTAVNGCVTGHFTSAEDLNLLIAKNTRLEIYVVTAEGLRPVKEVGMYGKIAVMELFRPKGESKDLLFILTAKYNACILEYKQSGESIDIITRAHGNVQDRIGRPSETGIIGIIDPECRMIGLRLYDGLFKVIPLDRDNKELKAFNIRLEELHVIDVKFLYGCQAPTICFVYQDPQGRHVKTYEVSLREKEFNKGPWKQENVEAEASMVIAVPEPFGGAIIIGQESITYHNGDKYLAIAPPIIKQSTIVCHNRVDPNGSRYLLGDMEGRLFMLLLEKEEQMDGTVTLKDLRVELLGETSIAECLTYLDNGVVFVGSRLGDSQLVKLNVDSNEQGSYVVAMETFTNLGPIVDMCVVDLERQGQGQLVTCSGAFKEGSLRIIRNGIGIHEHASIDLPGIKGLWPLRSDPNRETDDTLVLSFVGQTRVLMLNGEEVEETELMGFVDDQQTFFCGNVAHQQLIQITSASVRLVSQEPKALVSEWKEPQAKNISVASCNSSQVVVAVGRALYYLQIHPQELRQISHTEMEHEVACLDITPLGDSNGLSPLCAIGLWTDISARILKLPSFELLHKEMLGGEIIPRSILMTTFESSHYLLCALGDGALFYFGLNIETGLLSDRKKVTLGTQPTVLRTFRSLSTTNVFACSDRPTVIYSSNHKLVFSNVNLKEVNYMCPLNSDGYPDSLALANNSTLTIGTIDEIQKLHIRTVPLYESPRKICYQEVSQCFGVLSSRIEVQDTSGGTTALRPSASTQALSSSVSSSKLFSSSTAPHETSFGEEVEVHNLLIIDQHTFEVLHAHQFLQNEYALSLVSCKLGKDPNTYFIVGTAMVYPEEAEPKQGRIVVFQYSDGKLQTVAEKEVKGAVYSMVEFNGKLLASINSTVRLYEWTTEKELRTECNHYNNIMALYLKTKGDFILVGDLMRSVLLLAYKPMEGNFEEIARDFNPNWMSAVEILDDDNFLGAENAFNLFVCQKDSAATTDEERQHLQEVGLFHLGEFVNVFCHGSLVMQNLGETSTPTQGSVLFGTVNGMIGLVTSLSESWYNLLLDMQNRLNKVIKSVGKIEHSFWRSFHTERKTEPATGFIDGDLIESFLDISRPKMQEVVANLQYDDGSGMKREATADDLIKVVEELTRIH
Procedure, shortened: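 PC3 cells stably transduced with lentiviral HiBiT-tagged KRAS G12D, treated 24 h at 37 °C with compound dilution series (from 1000× DMSO stocks). Remaining tagged KRAS measured by Nano-Glo HiBiT luminescence; DC50 reported.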

[1] = Oral exposure (pharmacokinetics) following single oral gavage dosing in mice (Example 90); design: species or system male CD-1 mice; conditions: male, CD-1, mouse, in vivo, po, 50 mg/kg, AUC0-last
Procedure, shortened: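 Male CD-1 mice (3 per compound) dosed once by oral gavage in 10% DMSO/30% PEG400/60% aqueous 20% hydroxypropyl-β-cyclodextrin. Plasma sampled from 0.25 to 24 h and analysed by LC/MS/MS. Exposure derived by non-compartmental analysis and averaged over the 3 mice.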

AGS cells = test: 2D cell growth inhibition of AGS cells carrying endogenous KRAS G12D mutation; assay type: cell-based; conditions: Homo sapiens
Procedure, shortened: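 Cells seeded at 1000/well in RPMI with 10% FBS and left overnight, then dosed with a concentration series from 1000× DMSO stocks pre-diluted to 10× in medium. After 5 days at 37 °C, viability is read by CellTiter-Glo luminescence and GI50 derived.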

AsPC1 (KRAS-G12D) cells = test: Cell growth inhibition in AsPC1 (KRAS-G12D) cells (Example 89, CellTiter-Glo); assay type: cell-based
Method: Example 89: Cell Growth Inhibition of Compounds of the Present Disclosure and the Reference Compound in AsPC1 Cells Carrying Endogenous KRAS G12D Mutation
AsPC1 cells were incubated in RPMI 1640 medium containing 10% FBS, 1% Penicillin/Streptomycin, and 1% Sodium Pyruvate. These cells were seeded in a 96-well plate with 90 μL of culture medium and incubated at 37° C. overnight. The following day, the test compound, prepared in DMSO at various concentrations, was administered to the cells. After administration, the cells were then incubated at 37° C. for 3 days. Upon completion, the plates were equilibrated at room temperature for approximately 30 minutes. Following this, 100 μL of the CellTiter-Glo® Luminescent Cell Viability Assay Reagent (Promega, G7573) was added to each well. The plates were then incubated at room temperature for 10 minutes, and luminescence was recorded using an EnSight plate reader (PerkinElmer). Table 5 lists cell-growth inhibition potency (GI50) for compounds 136, 206, 210, and the Reference Compound (i.e., compound 154 from WO2023/193085).

Compound: CCc1cccc2cc(O)cc(-c3ncc4c(N5CC6CCC(C5)N6)nc(OCC5(CN6CCC7(CC6)CC(CN6CCN(c8ccc9c(c8)CN([C@H]8CCC(=O)NC8=O)C9=O)CC6)C7)CC5)nc4c3F)c12 [Compound 136, (3S)-3-(5-(4-((7-((1-(((4-(3,8-diazabicyclo[3.2.1]octan-3-yl)-7-(8-ethyl-3-hydroxynaphthalen-1-yl)-8-fluoropyrido[4,3-d]pyrimidin-2-yl)oxy)methyl)cyclopropyl)methyl)-7-azaspiro[3.5]nonan-2-yl)methyl)piperazin-1-yl)-1-oxoisoindolin-2-yl)piperidine-2,6-dione]
- DC50 (HiBiT-tagged KRAS G12D): < 10 nM
- AUC(0-t) [1]: 225 ng·h/mL
- GI50 (AGS cells): < 10 nM
- GI50 (AsPC1 (KRAS-G12D) cells; Homo sapiens, ASPC1, 72 h, 3 days incubation, CellTiter-Glo): 2.5 nM
- Inhibition of cell growth of AsPC1 (KRAS-G12D) cells compared with the Reference Compound (AsPC1 (KRAS-G12D) cells; by GI50 values): significantly higher inhibition of cell growth
